Activity calls are given as the source filed them. The rule behind the calls is not given here.
Experiments:
[1] = target: T1, 17-beta-hydroxysteroid dehydrogenase type 1 (Homo sapiens) (UniProt P14061); test: Inhibition of 17beta-HSD1 in human T47D cells expressing estrogen receptor assessed as conversion of [14C]-E1 to [14C]-E2 at 5 uM after 24 hrs; assay type: cell-based
T1 sequence (whole entry): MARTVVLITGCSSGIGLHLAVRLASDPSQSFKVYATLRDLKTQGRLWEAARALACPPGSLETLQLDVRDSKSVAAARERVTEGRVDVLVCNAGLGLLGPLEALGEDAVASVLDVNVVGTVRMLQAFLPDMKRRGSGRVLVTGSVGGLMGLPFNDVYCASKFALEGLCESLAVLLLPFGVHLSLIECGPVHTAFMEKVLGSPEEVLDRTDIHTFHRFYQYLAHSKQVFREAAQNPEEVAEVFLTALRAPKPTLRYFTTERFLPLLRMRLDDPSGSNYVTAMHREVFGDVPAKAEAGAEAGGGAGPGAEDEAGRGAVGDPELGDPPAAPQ

[2] = target: T1, 17-beta-hydroxysteroid dehydrogenase type 1 (Homo sapiens); test: Inhibition of 17beta-HSD1 in human T47D cells expressing estrogen receptor assessed as conversion of [14C]-E1 to [14C]-E2 at 0.3 uM after 24 hrs; assay type: cell-based
[3] = target: T2, 17-beta-hydroxysteroid dehydrogenase type 1 (Homo sapiens, UniProt P14061); test: Inhibition of 17beta-HSD1 in human T47D cells expressing estrogen receptor assessed as conversion of [14C]-E1 to [14C]-E2 after 24 hrs; assay type: cell-based
T2 sequence (P14061 whole entry): T1 sequence (whole entry)

[4] = tested on: T47D; test: Estrogenic activity in human T47D cells expressing estrogen receptor assessed as stimulation cell growth at 1 uM after 7 days relative to control
[5] = tested on: T47D; test: Estrogenic activity in human T47D cells expressing estrogen receptor assessed as stimulation cell growth at 0.1 uM after 7 days relative to control

Row | SMILES | inhibition [1] | inhibition [2] | IC50 [3] | Activity [4] | Activity [5]
1 | C[C@]12CC[C@@H]3c4ccc(O)cc4CC[C@H]3[C@@H]1C[C@@H]1[C@@H](Cc3cccc(C(N)=O)c3)C(=O)O[C@@H]12 | 75% | 20% | 1000 nM | inactive | inactive
2 | C[C@]12CC[C@@H]3c4ccc(O)cc4CC[C@H]3[C@@H]1C[C@H](Cc1cccc(C(N)=O)c1)[C@@H]2O | 90% | 85% |  | 83% | 48%
